Test results taken from patent US12545685B2 (Daiichi Sankyo Company, Limited, priority 2011, dated 2026).

How the values were obtained:
[1] = target: T1, Mdm2/p53 binding (GST-Mdm2 / His-p53) (Homo sapiens, UniProt Q00987, L33E); assay: Mdm2/p53 binding assay (HTRF, His-p53 and GST-Mdm2); settings: His-p53 (aa 1-132) and GST-Mdm2 (aa 25-108, L33E) 6.25 nM each; 25°C, 1 hour; values given as ranges
T1 construct: Mdm2 partial protein having Mdm2 amino acids at positions 25 to 108
How it was run: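 His-p53 (aa 1–132) and GST-Mdm2 (aa 25–108, L33E) were prepared at 6.25 nM each in the protein dilution (20 mM HEPES pH 7.4, 150 mM NaCl, 0.1% BSA). Compound in 10% DMSO buffer and XL665 anti-His/Eu anti-GST antibodies (KF buffer) were added, with 1 h at 25 °C. The 665/620 nm TR-FRET ratio gave T/C and a sigmoid-fitted IC50.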

[2] = system: human lung cancer-derived cell line NCI-H460 having wild-type p53; assay: Cell growth inhibition assay (MTT); assay type: cell-based; settings: 72 h, NCI-H460 cells, 3 days culture, values given as ranges, read-out: 50% growth inhibition concentration (GI50 value)
Protocol: A cell growth inhibition assay was conducted using a human lung cancer-derived cell line NCI-H460 having wild-type p53.
NCI-H460 cells were suspended in a medium (RPMI1640 medium containing 10% fetal bovine serum) and the suspension was added in an amount of 500 cells/150 μl/well to a 96-well plate. A test compound was dissolved in DMSO and this solution was diluted with medium to prepare a sample solution (DMSO concentration: 1% or lower). On the next day, medium nonsupplemented with the test compound, or the sample solution, was added in an amount of 50 μl/well. Cells were then cultured at 37° ° C. for 3 days in a 5% CO2 atmosphere.
An MTT assay was conducted immediately after the nonsupplemented medium or the sample solution was added. Another MTT assay was conducted after culturing the cells for 3 days. The MIT assays were conducted as shown below.
A 5 mg/ml MTT (3-(4,5-dimethylthiazol-2-yl)-2,5-diphenyltetrazolium bromide, Sigma-Aldrich Co., M-2128) solution was prepared using a phosphate buffer solution (Dulbecco's Phosphate-buffered Saline). This MIT solution was added in an amount of 20 μl/well. Then the plate was cultured at 37° ° C. for 4 hours in a 5% CO2 atmosphere. The plate was centrifuged at 1200 rpm for 5 minutes and then the culture supernatant was removed by aspiration using a dispenser. DMSO was added in an amount of 150 μl/well to dissolve generated formazan. The plate was stirred using a plate mixer for uniform color development from each well. The absorbance of each well was measured at OD 540 nm and at a reference OD (660 nm) using a plate reader (SpectraMax PLUS384, Molecular Devices, CA, USA).
The OD value measured on the day of adding the sample solution was defined as S. The OD value measured three days after addition of the sample solution was defined as T. The OD value measured three days after addition of the DMSO dilution was defined as C. T/C (%) was determined at each concentration according to the formula shown below in order to prepare a dose response curve, from which 50% growth inhibition concentration (GI50 value) was calculated.

T1 sequence (Q00987 25-108 L33E): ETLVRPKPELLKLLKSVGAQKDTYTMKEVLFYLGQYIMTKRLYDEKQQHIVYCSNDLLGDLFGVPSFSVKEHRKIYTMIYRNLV

SMILES | IC50 [1] | GI50 [2]
CC1(C)CCC2(CC1)N[C@@H](C(=O)N[C@@H]1CC[C@@H](CO)OC1)[C@H](c1ccnc(Cl)c1F)[C@]21C(=O)Nc2cc(Cl)ccc21 [Example 20, (3′R, 4′S,5′R)-6″-chloro-4′-(2-chloro-3-fluoropyridin-4-yl)-N-[(3R,6S)-6-(hydroxymethyl)tetrahydro-2H-pyran-3-yl]-4,4-dimethyl-2″-oxo-1″,2″-dihydrodispiro[cyclohexane-1,2′-pyrrolidine-3′,3″-indole]-S′-carboxamide] | 0.001 to 0.05 µM | < 0.1 µM
CC1(C)CCC2(CC1)N[C@@H](C(=O)N[C@@H]1CC[C@@H](CO)OC1)[C@H](c1ccnc(Cl)c1F)[C@]21C(=O)Nc2cc(Cl)c(F)cc21 [Example 23, (3′R, 4′S,5′R)-6″-chloro-4′-(2-chloro-3-fluoropyridin-4-yl)-5″-fluoro-N-[(3R,6S)-6-(hydroxymethyl)tetrahydro-2H-pyran-3-yl]-4,4-dimethyl-2″-oxo-1″,2″-dihydrodispiro[cyclohexane-1,2′-pyrrolidine-3′,3″-indole]-5′-carboxamide] | 0.001 to 0.05 µM | 0.1 to 0.5 µM
CC1(C)CCC2(CC1)N[C@@H](C(=O)N[C@H]1CO[C@H](CO)[C@@H](O)C1)[C@H](c1cccc(Cl)c1F)[C@]21C(=O)Nc2nc(Cl)ccc21 [Example 30, (3′R, 4′S,5′R)-6″-chloro-4′-(3-chloro-2-fluorophenyl)-N-[(3R,5S,6R)-5-hydroxy-6-(hydroxymethyl)tetrahydro-2H-pyran-3-yl]-4,4-dimethyl-2″-oxo-1″,2″-dihydrodispiro[cyclohexane-1,2′-pyrrolidine-3′,3″-pyrrolo[2,3-b]pyridine]-5′-carboxamide] | 0.001 to 0.05 µM | 1 to 5 µM
CC1(C)CCC2(CC1)N[C@@H](C(=O)N[C@@H]1CC[C@@H](c3nnco3)OC1)[C@H](c1ccnc(Cl)c1F)[C@]21C(=O)Nc2cc(Cl)ccc21 [Example 34, (3′R, 4′S,5′R)-6″-chloro-4′-(2-chloro-3-fluoropyridin-4-yl)-4,4-dimethyl-N-[(3R,6S)-6-(1,3,4-oxadiazol-2-yl)tetrahydro-2H-pyran-3-yl]-2″-oxo-1″,2″-dihydrodispiro[cyclohexane-1,2′-pyrrolidine-3′,3″-indole]-5′-carboxamide] | 0.001 to 0.05 µM | 0.1 to 0.5 µM
CC1(C)CCC2(CC1)N[C@@H](C(=O)N[C@H]1CC[C@H](c3n[nH]c(=O)o3)CC1)[C@H](c1ccnc(Cl)c1F)[C@]21C(=O)Nc2cc(Cl)ccc21 [Example 35, (3′R, 4′S, S′R)-6″-chloro-4′-(2-chloro-3-fluoropyridin-4-yl)-4,4-dimethyl-2″-oxo-N-[trans-4-(5-oxo-4,5-dihydro-1,3,4-oxadiazol-2-yl)cyclohexyl]-1″,2″-dihydrodispiro[cyclohexane-1,2′-pyrrolidine-3′,3″-indole]-5′-carboxamide] | 0.05 to 0.1 µM | < 0.1 µM
CC1(C)CCC2(CC1)N[C@@H](C(=O)N[C@H]1CC[C@H](c3n[nH]c(=O)o3)CC1)[C@H](c1ccnc(Cl)c1)[C@]21C(=O)Nc2cc(Cl)ccc21 [Example 51, (3′R, 4′R, 5′R)-6″-chloro-4′=(2-chloropyridin-4-yl)-4,4-dimethyl-2″-oxo-N-[trans-4-(5-oxo-4,5-dihydro-1,3,4-oxadiazol-2-yl)cyclohexyl]-1″,2″-dihydrodispiro[cyclohexane-1,2′-pyrrolidine-3′,3″-indole]-5′-carboxamide] | 0.05 to 0.1 µM | 0.1 to 0.5 µM

Second part, the compound after the results:

IC50 [1] | GI50 [2] | SMILES
0.001 to 0.05 µM | 0.5 to 1 µM | CC1(C)CCC2(CC1)N[C@@H](C(=O)N[C@@H]1CC[C@@H](CO)OC1)[C@H](c1ccnc(Cl)c1F)[C@]21C(=O)Nc2nc(Cl)ccc21 [Example 25, (3′R, 4′S,5′R)-6″-chloro-4′-(2-chloro-3-fluoropyridin-4-yl)-N-[(3R,6S)-6-(hydroxymethyl)tetrahydro-2H-pyran-3-yl]-4,4-dimethyl-2″-oxo-1″,2″-dihydrodispiro[cyclohexane-1,2′-pyrrolidine-3′,3″-pyrrolo[2,3-b]pyridine]-5′-carboxamide]
0.001 to 0.05 µM | 1 to 5 µM | CC1(C)CCC2(CC1)N[C@@H](C(=O)N[C@@H]1CC[C@@H](CO)OC1)[C@H](c1cc(Cl)cc(CO)c1)[C@]21C(=O)Nc2cc(Cl)ccc21 [Example 28, (3′R, 4′R, 5′R)-6″-chloro-4′-[3-chloro-5-(hydroxymethyl)phenyl]-N-[(3R,6S)-6-(hydroxymethyl)tetrahydro-2H-pyran-3-yl]-4,4-dimethyl-2″-oxo-1″,2″-dihydrodispiro[cyclohexane-1,2′-pyrrolidine-3′,3″-indole]-5′-carboxamide]
0.001 to 0.05 µM | 1 to 5 µM | CC1(C)CCC2(CC1)N[C@@H](C(=O)N[C@H]1CO[C@H](CO)[C@@H](O)C1)[C@H](c1ccnc(Cl)c1F)[C@]21C(=O)Nc2cc(Cl)ccc21 [Example 29]
0.001 to 0.05 µM | 0.1 to 0.5 µM | O=C(N[C@@H]1CC[C@@H](CO)OC1)[C@@H]1NC2(CC(CF)(CF)C2)[C@@]2(C(=O)Nc3cc(Cl)ccc32)[C@H]1c1cccc(Cl)c1F [Example 38, (3′R, 4′S,5′R)-6″-chloro-4′-(3-chloro-2-fluorophenyl)-3,3-bis(fluoromethyl)-N-[(3R,6S)-6-(hydroxymethyl)tetrahydro-2H-pyran-3-yl]-2″-oxo-1″,2″-dihydrodispiro [cyclobutane-1,2′-pyrrolidine-3′,3″-indole]-5′-carboxamide]
0.001 to 0.05 µM | 0.5 to 1 µM | CC1(C)CCC2(CC1)N[C@@H](C(=O)N[C@H]1CC[C@@](O)(CO)CC1)[C@H](c1ccnc(Cl)c1F)[C@]21C(=O)Nc2cc(Cl)ccc21 [Example 40, (3′R, 4′S,5R)-6″-chloro-4′-(2-chloro-3-fluoropyridin-4-yl)-N-[trans-4-hydroxy-4-(hydroxymethyl)cyclohexyl]-4,4-dimethyl-2″-oxo-1″,2″-dihydrodispiro[cyclohexane-1,2′-pyrrolidine-3′,3″-indole]-5′-carboxamide]
0.05 to 0.1 µM | 0.5 to 1 µM | CC1(C)CCC2(CC1)N[C@@H](C(=O)N[C@@H]1CC[C@@H](C(C)(C)O)OC1)[C@H](c1ccnc(Cl)c1F)[C@]21C(=O)Nc2nc(Cl)ccc21 [Example 47, (3′R, 4′S,5′R)-6″-chloro-4′-(2-chloro-3-fluoropyridin-4-yl)-N-[(3R,6S)-6-(1-hydroxy-1-methylethyl)tetrahydro-2H-pyran-3-yl]-4,4-dimethyl-2″-oxo-1″,2″-dihydrodispiro[cyclohexane-1,2′-pyrrolidine-3′,3″-pyrrolo[2,3-b]pyridine]-5′-carboxamide]
0.001 to 0.05 µM | 0.5 to 1 µM | CC1(C)CCC2(CC1)N[C@@H](C(=O)N[C@@H]1CC[C@@H](c3nnco3)OC1)[C@H](c1ccnc(Cl)c1)[C@]21C(=O)Nc2cc(Cl)ccc21 [Example 53, (3′R, 4′R, 5′R)-6″-chloro-4′-(2-chloropyridin-4-yl)-4,4-dimethyl-N-[(3R,6S)-6-(1,3,4-oxadiazol-2-yl)tetrahydro-2-pyran-3-yl]-2″-oxo-1″,2″-dihydrodispiro[cyclohexane-1,2′-pyrrolidine-3′,3″-indole]-5′-carboxamide]
0.05 to 0.1 µM | 0.5 to 1 µM | CC1(C)CCC2(CC1)N[C@@H](C(=O)N[C@H]1CC[C@H](c3nnco3)CC1)[C@H](c1ccnc(Cl)c1)[C@]21C(=O)Nc2cc(Cl)ccc21 [Example 54, (3′R, 4′R, 5′R)-6″-chloro-4′-(2-chloropyridin-4-yl)-4,4-dimethyl-N-[trans-4-(1,3,4-oxadiazol-2-yl)cyclohexyl]-2″-oxo-1″,2″-dihydrodispiro[cyclohexane-1,2′-pyrrolidine-3′,3″-indole]-5′-carboxamide]
